Earlier results in patent publication US11872266B2, “Rapid-acting insulin compositions” (Eli Lilly and Company, priority 2014, dated 2024).

Settings: on a molar basis

**Q.** Which “Potency relative to human insulin” value does the source give for “28^B-L-Lysine-29^B-L-proline human insulin [Insulin lispro]” here?
**A.** equipotent to human insulin
